Test results reported in patent publication US5811558A, “Process for the resolution of etodolac using glucamine derivatives” (priority 1994, dated 1998).
Where a name gives a salt, the structure may show the parent alone.

Columns and labels:
[1] = parameters: species or system human (healthy male volunteers); conditions: human, in vivo
Method: (§1) An open randomised two way crossover study was conducted on a group of 13 healthy male volunteers to investigate the pharmacokinetics of the meglumine salt of (S)-etodolac and racemic etodolac (Lodine®); 11 volunteers received both treatments. Doses used were […] of the meglumine salt (equivalent to 100 mg of the free acid) and 200 mg of racemic etodolac. Blood samples were taken regularly.
Etodolac had no affect on vital signs, ECGs, physical examinations or on any clinical laboratory assessments, including serum biochemistry, haematology and urinalysis, when administered in either form.

[2] = open randomised two way crossover pharmacokinetic study in healthy male volunteers, single oral dose; type: in vivo, human (healthy male volunteers); conditions: for half-life: t1/2
Method: as §1
The results of the pharmacokinetic study are shown in Table 1 and in FIGS. 1 and 2 below.
FIG. 1 is a graph of plasma concentration (μg/ml) of the (S)enantiomer for all volunteers receiving a single oral dose of 200 mg of racemic etodolac.
FIG. 2 is a graph of plasma concentration (μ/ml) of the (S) enantiomer for all volunteers receiving a single oral dose of 168 mg of the meglumine salt of (S)-etodolac (100 mg free acid equivalent).

[3] = free acid, Lee et al, J. Pharm. Sci. (1988); cited from earlier work

SMILES: CCc1cccc2c3c([nH]c12)C(CC)(CC(=O)O)OCC3 (racemic) [racemic etodolac]
- effect on vital signs, ECGs, physical examinations or clinical laboratory assessments (serum biochemistry, haematology, urinalysis) [1]: no affect
- t1/2 comparison in words ([2]; human, in vivo): substantially eguivalent
- half-life ([2]; human, in vivo, po): 7.14 h
- tmax ([2]; human, in vivo, po, tmax): 1.67 h
- stability on heating under acidic conditions [3]: leads to its decomposition

SMILES: CCc1cccc2c3c([nH]c12)[C@@](CC)(CC(=O)O)OCC3 [(R)-etodolac]
- t1/2 comparison in words ([2]; human, in vivo): substantially eguivalent
- plasma concentrations of (R)-etodolac relative to (S)-etodolac ([2]; human, in vivo, po): about 10 times higher
- half-life ([2]; human, in vivo, po): ~7 h
- tmax ([2]; human, in vivo, po, tmax): 1.73 h

SMILES: CCc1cccc2c3c([nH]c12)[C@](CC)(CC(=O)O)OCC3 [(S)-etodolac]
- t1/2 comparison in words ([2]; human, in vivo): markedly lower
- tmax ([2]; human, in vivo, po): 1.23 h
- half-life ([2]; human, in vivo, po): ~2 h

SMILES: CCc1cccc2c3c([nH]c12)[C@](CC)(CC(=O)O)OCC3 [Meglumine salt of (S)-etodolac]
- peak plasma concentrations in words ([2]; human, in vivo): significantly higher
- tmax ([2]; human, in vivo, po): 0.333 h
- appearance in plasma in words ([2]; meglumine salt dosed orally): appears in the plasma very rapidly
